Source: article PMC10390107, “The 4-(dimethylaminoalkyl)piperazine inhibitors of α-glucosidase: allosteric enzyme inhibition and identification of interacting chemical groups” (Turkish Journal of Chemistry, 2022)
Entries after “also recorded” stand apart in the source; their conditions may differ. Like-named read-outs stand apart in the source and are kept apart here.

Target: T1, α-glucosidase (EC 3.2.1.20) from Saccharomyces cerevisiae (Saccharomyces cerevisiae, UniProt P53341)
T1 construct: purchased Sigma Chemical Co., St. Louis, USA
Experiment: biochemical
Assay type: biochemical
Settings: mean of quadruplet experiments ± SEM, from Dixon plots, pH 6.8, 37 °C
Protocol: All in vitro α-glucosidase inhibition assays were performed in a 96-well microplate format. The α-glucosidase inhibition assay reported elsewhere was customized to suit the experimental needs of the current work. The assay mixture contained 50 mM sodium phosphate buffer (pH 6.8), 20 mU of α-glucosidase (EC 3.2.1.20) from Saccharomyces cerevisiae (Sigma Chemical Co., St. Louis, USA), and 1.0 mM of p-nitrophenyl-α-D-glucopyranoside (PNP-G) substrate. All target compounds were dissolved in DMSO with the assay mixture containing DMSO at a final concentration of 3%. […] The reaction was continuously monitored at 400 nm in SpectraMax Plus 384® microplate reader (Molecular Devices, CA, USA). […] All assays were performed as four individual experiments out of which the values of mean and standard error of mean (SEM) were calculated.
The enzyme kinetics assay procedure was essentially the same as mentioned above except that it was specifically designed for the kinetic work. […] The type of inhibition was calculated from the Lineweaver-Burk plots which was further confirmed by the Dixon plot using Grafit 7.0.3 software (Erithacus Software Ltd., Staines, UK). The Ki values were also calculated from their respective Dixon plots. All kinetic experiments were conducted in quadruplicate from which mean Ki values and the SEM were calculated.

T1 sequence (P53341 whole entry): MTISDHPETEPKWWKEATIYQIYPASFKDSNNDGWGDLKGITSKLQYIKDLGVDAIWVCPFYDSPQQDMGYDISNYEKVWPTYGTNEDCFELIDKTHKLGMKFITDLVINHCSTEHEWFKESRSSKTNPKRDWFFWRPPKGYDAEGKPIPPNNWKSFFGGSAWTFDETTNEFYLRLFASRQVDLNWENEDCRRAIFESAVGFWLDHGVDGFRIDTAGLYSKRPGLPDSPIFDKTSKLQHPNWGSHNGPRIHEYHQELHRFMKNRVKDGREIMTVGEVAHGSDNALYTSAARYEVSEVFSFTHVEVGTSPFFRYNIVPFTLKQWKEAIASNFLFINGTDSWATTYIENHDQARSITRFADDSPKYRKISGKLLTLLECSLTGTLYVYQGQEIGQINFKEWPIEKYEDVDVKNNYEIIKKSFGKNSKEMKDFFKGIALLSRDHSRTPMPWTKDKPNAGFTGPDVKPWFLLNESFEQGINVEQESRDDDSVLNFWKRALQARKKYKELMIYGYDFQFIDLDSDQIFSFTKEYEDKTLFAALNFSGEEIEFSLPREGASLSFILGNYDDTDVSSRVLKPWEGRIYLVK

Row | Ki (read-out: Ki) | SMILES | Ki
1 | 5.75 ± 0.2 µM | CN(C)CCCN1CCN(C(=S)SCCCC(=O)c2ccc(Cl)cc2)CC1 [PC1] | 
2 |  | CN(C)CCCN1CCN(C(=S)SCCC(=O)c2ccccc2)CC1 [PC9] | no inhibitory activity; also recorded: Inactive
